Among the data in ChEMBL document CHEMBL1147549, “Imidazole acetic acid TAFIa inhibitors: SAR studies centered around the basic P(1)(') group” (Bioorg Med Chem Lett, 2004) are IC50, CLT50 and Selectivity values, retold here.

Some results are limits rather than exact numbers.

The target of one assay is T1, Carboxypeptidase B2 (Homo sapiens, UniProt Q96IY4).
T1 sequence (Q96IY4 whole entry): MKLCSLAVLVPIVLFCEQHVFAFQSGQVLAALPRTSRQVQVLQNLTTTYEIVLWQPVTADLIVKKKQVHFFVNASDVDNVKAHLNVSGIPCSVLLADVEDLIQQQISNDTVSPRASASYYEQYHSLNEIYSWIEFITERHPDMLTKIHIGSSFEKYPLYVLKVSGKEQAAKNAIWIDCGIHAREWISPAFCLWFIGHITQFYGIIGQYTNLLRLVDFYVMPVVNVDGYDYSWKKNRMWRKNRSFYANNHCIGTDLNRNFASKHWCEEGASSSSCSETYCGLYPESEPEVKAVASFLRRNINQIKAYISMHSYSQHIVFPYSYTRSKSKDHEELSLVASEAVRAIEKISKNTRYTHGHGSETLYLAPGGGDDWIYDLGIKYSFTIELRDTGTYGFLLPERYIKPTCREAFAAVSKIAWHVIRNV
Description: Inhibitory potency against human TAFIa (thrombin-activatable fibrinolysis inhibitor).

The next assay deals with T2, Carboxypeptidase B (Homo sapiens, UniProt P15086).
T2 sequence (P15086 whole entry): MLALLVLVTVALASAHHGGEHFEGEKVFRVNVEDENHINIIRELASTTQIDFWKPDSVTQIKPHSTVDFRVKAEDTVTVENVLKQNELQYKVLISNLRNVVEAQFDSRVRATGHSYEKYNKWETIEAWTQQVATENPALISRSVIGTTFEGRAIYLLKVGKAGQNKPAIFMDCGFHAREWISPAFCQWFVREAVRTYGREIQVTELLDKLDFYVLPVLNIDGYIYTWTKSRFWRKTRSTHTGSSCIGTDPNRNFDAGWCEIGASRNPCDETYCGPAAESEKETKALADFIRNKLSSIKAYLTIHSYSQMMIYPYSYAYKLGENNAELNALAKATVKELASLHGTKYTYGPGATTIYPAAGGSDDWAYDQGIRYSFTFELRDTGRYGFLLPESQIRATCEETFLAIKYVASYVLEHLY
The experiment in a line: Inhibition of human carboxypeptidase B (CPB).

Assay [1] in a line: Concentration providing 50% acceleration of clot lysis in pooled human plasma. The class given is functional.
The species named for another assay is Homo sapiens. The experiment in a line: Selectivity for TAFIa versus CPB carboxypeptidase B isoforms.

The IC50 is the point on the concentration scale where inhibition reaches its midpoint.

As to `O=C(O)C(CCC1CNC1)c1cnc[nH]1` (configuration not stated), on Carboxypeptidase B2, the IC50 was above 20000 nM.
Turning to `CC(C)CCn1cnc(C(CCCCN)C(=O)O)c1` (configuration not stated), the half-maximal inhibitory concentration (IC50) against Carboxypeptidase B stood at 160 nM; at Carboxypeptidase B2, 24 nM. The CLT50 in assay [1] was 0.21 µM. In addition, the Selectivity in the assay filed under Homo sapiens turned out to be 6.7.
In turn, `O=C(O)C(Cc1ccc2nccn2c1)c1cnc[nH]1` (configuration not stated) returned a half-maximal inhibitory concentration (IC50) against Carboxypeptidase B2 of 3300 nM.
Still for that read-out and setting: in the case of `O=C(O)C(CC1CCCNCC1)c1c[nH]cn1` (configuration not stated) it was above 20000 nM; in that of `Cc1cc(N)ncc1CC(C(=O)O)c1c[nH]cn1` (configuration not stated), 1500 nM.
The same measure, in the same setting: the same measure for `O=C(O)C(CCC1CCNC1)c1cnc[nH]1` (configuration not stated): above 20000 nM; for `Nc1cccc(CC(C(=O)O)c2cnc[nH]2)n1` (configuration not stated): 15000 nM; for `O=C(O)C(CC1CCNCC1)c1cnc[nH]1` (configuration not stated): above 20000 nM.
In the case of `Nc1ncc(CC(C(=O)O)c2cnc[nH]2)cc1Cl` (configuration not stated), the IC50 on Carboxypeptidase B2 was determined as 5300 nM.
In the case of `NC1CCC(CC(C(=O)O)c2cnc[nH]2)CC1` (configuration not stated), the IC50 against Carboxypeptidase B2 came out at 7000 nM.
At Carboxypeptidase B2, `NCCCCCC(C(=O)O)c1cnc[nH]1` (configuration not stated) showed a half-maximal inhibitory concentration (IC50) of 4700 nM.
Still for that read-out and setting: in the case of `Nc1ncc(CC(C(=O)O)c2c[nH]cn2)cn1` (configuration not stated) it was 67000 nM.
In the case of `O=C(O)C(CC1CCNC1)c1c[nH]cn1` (configuration not stated), on Carboxypeptidase B2, the IC50 was above 20000 nM.
Take `Cc1cc(CC(C(=O)O)c2cn(CCC(C)(C)C)cn2)cnc1N` (configuration not stated): the IC50 against Carboxypeptidase B was 1 nM; against Carboxypeptidase B2, 12 nM. The CLT50 in assay [1] is 0.159 µM. The compound further registered a Selectivity in the assay filed under Homo sapiens of 0.08.
As to `CC(CN)CCC(C(=O)O)c1c[nH]cn1` (configuration not stated), the Selectivity in the assay listed under Homo sapiens worked out at 5.6.
Consider `NCCCCC(C(=O)O)c1c[nH]cn1` (configuration not stated), for which the IC50 against Carboxypeptidase B was found to be 3700 nM; at Carboxypeptidase B2 it was 590 nM. Further, the CLT50 entry in assay [1] is recorded as “>=20 uM”. The same compound registered a Selectivity in the assay listed under Homo sapiens of 6.3.
For `O=C(O)C(CC1CNC1)c1cnc[nH]1` (configuration not stated), the IC50 on Carboxypeptidase B2 is above 20000 nM.
Turning to `CC(C)(C)CCn1cnc(C(C[C@H]2CC[C@H](N)C2)C(=O)O)c1` (some centres not stated), the IC50 on Carboxypeptidase B and on Carboxypeptidase B2 was 1 nM each time. Also, the CLT50 in assay [1] was determined as 0.014 µM. In the assay filed under Homo sapiens, this compound showed a Selectivity of 1.
On to `CN(C)CCCCC(C(=O)O)c1cnc[nH]1` (configuration not stated), for which the IC50 at Carboxypeptidase B2 is above 50000 nM.
On the same count and under the same terms, the same measure for `NCCCC(C(=O)O)c1cnc[nH]1` (configuration not stated): 6800 nM.
With `CC(C)(CN)CCC(C(=O)O)c1c[nH]cn1` (configuration not stated), the IC50 came to 600 nM against Carboxypeptidase B and 380 nM at Carboxypeptidase B2. This compound showed a Selectivity in the assay listed under Homo sapiens of 1.6.
For the compound `Cc1cc(CC(C(=O)O)c2cn(CCC(C)C)cn2)cnc1N` (configuration not stated), the IC50 on Carboxypeptidase B is 1 nM; against Carboxypeptidase B2 it was 23 nM. The same compound yielded a CLT50 in assay [1] of 0.17 µM. For the same compound, in the assay filed under Homo sapiens, the Selectivity was 0.04.
In turn, `CNc1ccc(CC(C(=O)O)c2cnc[nH]2)cn1` (configuration not stated) had a concentration for half-maximal inhibition (IC50) against Carboxypeptidase B2 of 13000 nM.
Still for that read-out and setting: in the case of `O=C(O)C(CCC1CCCNCC1)c1cnc[nH]1` (configuration not stated) it was above 20000 nM; in that of `Nc1ncc(CC(C(=O)O)c2c[nH]cn2)cc1F` (configuration not stated), 6700 nM.
Regarding `Cc1cc(CC(C(=O)O)c2c[nH]cn2)cnc1N` (configuration not stated), the IC50 against Carboxypeptidase B was 20 nM; at Carboxypeptidase B2 it was 100 nM. The same compound had a CLT50 in assay [1] of 2.1 µM. In addition, the Selectivity in the assay listed under Homo sapiens worked out at 0.2.
Regarding `Nc1cc(CC(C(=O)O)c2c[nH]cn2)ccn1` (configuration not stated), it took 12000 nM to reach half-maximal inhibition on Carboxypeptidase B2 (IC50).
With `CC(C)CCn1cnc(C(Cc2ccc(N)nc2)C(=O)O)c1` (configuration not stated), the IC50 on Carboxypeptidase B was 4 nM. In addition, the CLT50 entry in assay [1] is “==0.12 uM”.
On the same counts, the results for `Nc1ccc(CC(C(=O)O)c2c[nH]cn2)cn1` (configuration not stated) are 70 nM and 0.97 µM.
The compound `O=C(O)C(CCC1CCNCC1)c1c[nH]cn1` (configuration not stated) had an IC50 against Carboxypeptidase B2 above 20000 nM.
The same measure, in the same setting: the same measure for `CNCCCCC(C(=O)O)c1cnc[nH]1` (configuration not stated): 26000 nM; for `Cc1nc(N)ccc1CC(C(=O)O)c1c[nH]cn1` (configuration not stated): 5800 nM.
Turning to `CC(CN)CCC(C(=O)O)c1cnc[nH]1` (configuration not stated), the IC50 against Carboxypeptidase B was 1500 nM; on Carboxypeptidase B2, 270 nM.
At Carboxypeptidase B2, `NC1CCCC(CC(C(=O)O)c2c[nH]cn2)C1` (configuration not stated) came in with an IC50 above 20000 nM.
